Test results from ChEMBL document CHEMBL5113477, “Membrane acting Povarov-Doebner derived compounds potently disperse preformed multidrug resistant Gram-positive bacterial biofilms” (Eur J Med Chem, 2022).
Values after ≈ are worked out from the molar mass of the structure shown. Values belong to the molecule of their own block, whether it stands above or below them.

Columns and labels:
Type in all cases: functional
[1] = test system: Staphylococcus aureus; assay: Antibacterial activity against Staphylococcus aureus ATCC 25923 assessed as reduction in visible bacterial growth incubated for 18 to 20 hrs by CLSI based broth microdilution analysis; details: time 18-20 hrs
[2] = test system: Enterococcus faecium; assay: (§1) Antibiofilm activity against vancomycin-resistant Enterococcus faecium ATCC 700221 in TSB broth assessed as dispersal of glucose-induced biofilm preincubated with glucose for 48 hrs followed by compound addition and measured after 24 hrs by crystal violet staining based analysis
[3] = test system: Staphylococcus aureus; assay: (§2) Antibiofilm activity against methicillin-resistant Staphylococcus aureus USA 300 in TSB broth assessed as dispersal of glucose-induced biofilm preincubated with glucose for 48 hrs followed by compound addition and measured after 24 hrs by crystal violet staining based analysis
[4] = test system: Enterococcus faecalis; assay: (§3) Antibiofilm activity against vancomycin-resistant Enterococcus faecalis ATCC 51575 in TSB broth assessed as dispersal of glucose-induced biofilm preincubated with glucose for 48 hrs followed by compound addition and measured after 24 hrs by crystal violet staining based analysis
[5] = test system: Enterococcus faecium; assay: as §1, with “Synergistic antibiofilm” for “Antibiofilm”, “biofilm by measuring Nitroxoline MBEC” for “biofilm”, “checkerboard assay” for “analysis”
[6] = test system: Staphylococcus aureus; assay: as §2, with “Synergistic antibiofilm” for “Antibiofilm”, “biofilm by measuring Nitroxoline MBEC” for “biofilm”, “checkerboard assay” for “analysis”
[7] = test system: Staphylococcus aureus; assay: as §2, with “Synergistic antibiofilm” for “Antibiofilm”, “biofilm by measuring Bithionol MBEC” for “biofilm”, “checkerboard assay” for “analysis”
[8] = test system: Staphylococcus aureus; assay: (§4) Synergistic antibiofilm activity against methicillin-resistant Staphylococcus aureus USA 300 in TSB broth assessed as dispersal of glucose-induced biofilm preincubated with glucose for 48 hrs followed by compound addition and further incubated for 24 hrs in presence of Nitroxoline by crystal violet staining based checkerboard assay
[9] = test system: Staphylococcus aureus; assay: as §4, with “Bithionol” for “Nitroxoline”
[10] = test system: Staphylococcus aureus; assay: as §4, with “glucose-induced biofilm by measuring fractional inhibitory concentration index preincubated with” for “glucose-induced biofilm preincubated with”
[11] = test system: Staphylococcus aureus; assay: (§5) Synergistic antibiofilm activity against methicillin-resistant Staphylococcus aureus USA 300 in TSB broth assessed as dispersal of glucose-induced biofilm by measuring fractional inhibitory concentration index preincubated with glucose for 48 hrs followed by compound addition and further incubated for 24 hrs in presence of Bithionol by crystal violet staining based checkerboard assay
[12] = test system: Enterococcus faecalis; assay: as §3, with “Synergistic antibiofilm” for “Antibiofilm”, “biofilm by measuring Nitroxoline MBEC” for “biofilm”, “checkerboard assay” for “analysis”
[13] = test system: Enterococcus faecalis; assay: as §3, with “Synergistic antibiofilm” for “Antibiofilm”, “biofilm by measuring Bithionol MBEC” for “biofilm”, “checkerboard assay” for “analysis”
[14] = test system: Enterococcus faecalis; assay: as §4, with “vancomycin-resistant Enterococcus faecalis ATCC 51575” for “methicillin-resistant Staphylococcus aureus USA 300”
[15] = test system: Enterococcus faecalis; assay: as §4, with “vancomycin-resistant Enterococcus faecalis ATCC 51575” for “methicillin-resistant Staphylococcus aureus USA 300”, “Bithionol” for “Nitroxoline”
[16] = test system: Enterococcus faecalis; assay: as §5, with “vancomycin-resistant Enterococcus faecalis ATCC 51575” for “methicillin-resistant Staphylococcus aureus USA 300”, “Nitroxoline” for “Bithionol”
[17] = test system: Enterococcus faecalis; assay: as §5, with “vancomycin-resistant Enterococcus faecalis ATCC 51575” for “methicillin-resistant Staphylococcus aureus USA 300”
[18] = test system: Enterococcus faecium; assay: as §1, with “Synergistic antibiofilm” for “Antibiofilm”, “biofilm […]” for “biofilm”, “checkerboard assay” for “analysis”
[19] = test system: Enterococcus faecium; assay: as §4, with “vancomycin-resistant Enterococcus faecium ATCC 700221” for “methicillin-resistant Staphylococcus aureus USA 300”
[20] = test system: Enterococcus faecium; assay: as §4, with “vancomycin-resistant Enterococcus faecium ATCC 700221” for “methicillin-resistant Staphylococcus aureus USA 300”, “Bithionol” for “Nitroxoline”
[21] = test system: Enterococcus faecium; assay: as §5, with “vancomycin-resistant Enterococcus faecium ATCC 700221” for “methicillin-resistant Staphylococcus aureus USA 300”, “Nitroxoline” for “Bithionol”
[22] = test system: Enterococcus faecium; assay: as §5, with “vancomycin-resistant Enterococcus faecium ATCC 700221” for “methicillin-resistant Staphylococcus aureus USA 300”
[23] = test system: Enterococcus faecium; assay: Antibacterial activity against vancomycin-resistant Enterococcus faecium ATCC 700221 assessed as reduction in visible bacterial growth incubated for 18 to 20 hrs by CLSI based broth microdilution analysis; details: time 18-20 hrs
[24] = test system: Staphylococcus aureus; assay: Antibacterial activity against methicillin-resistant Staphylococcus aureus ATCC 33592 assessed as reduction in visible bacterial growth incubated for 18 to 20 hrs by CLSI based broth microdilution analysis; details: time 18-20 hrs
[25] = test system: Listeria monocytogenes; assay: Antibacterial activity against Listeria monocytogenes ATCC 19115 assessed as reduction in visible bacterial growth incubated for 18 to 20 hrs by CLSI based broth microdilution analysis; details: time 18-20 hrs
[26] = test system: Enterococcus faecalis; assay: Antibacterial activity against Enterococcus faecalis ATCC 29212 assessed as reduction in visible bacterial growth incubated for 18 to 20 hrs by CLSI based broth microdilution analysis; details: time 18-20 hrs
[27] = test system: Enterococcus faecalis; assay: Antibacterial activity against vancomycin-resistant Enterococcus faecalis ATCC 51575 assessed as reduction in visible bacterial growth incubated for 18 to 20 hrs by CLSI based broth microdilution analysis; details: time 18-20 hrs
[28] = test system: Staphylococcus aureus; assay: Antibacterial activity against methicillin-resistant Staphylococcus aureus USA 300 assessed as reduction in visible bacterial growth incubated for 18 to 20 hrs by CLSI based broth microdilution analysis; details: time 18-20 hrs
[29] = test system: Staphylococcus aureus; assay: Antibacterial activity against methicillin-resistant Staphylococcus aureus USA 300 (ARLG 1561) assessed as reduction in visible bacterial growth incubated for 18 to 20 hrs by CLSI based broth microdilution analysis; details: time 18-20 hrs
[30] = test system: Staphylococcus aureus; assay: Antibacterial activity against methicillin-resistant Staphylococcus aureus USA 300 (ARLG 1567) assessed as reduction in visible bacterial growth incubated for 18 to 20 hrs by CLSI based broth microdilution analysis; details: time 18-20 hrs
[31] = test system: Staphylococcus aureus; assay: Antibacterial activity against methicillin-resistant Staphylococcus aureus USA 300 (ARLG 1568) assessed as reduction in visible bacterial growth incubated for 18 to 20 hrs by CLSI based broth microdilution analysis; details: time 18-20 hrs
[32] = test system: Staphylococcus aureus; assay: Antibacterial activity against methicillin-resistant Staphylococcus aureus USA 300 (ARLG 1569) assessed as reduction in visible bacterial growth incubated for 18 to 20 hrs by CLSI based broth microdilution analysis; details: time 18-20 hrs
[33] = test system: Staphylococcus aureus; assay: Antibacterial activity against methicillin-resistant Staphylococcus aureus USA 300 (ARLG 1570) assessed as reduction in visible bacterial growth incubated for 18 to 20 hrs by CLSI based broth microdilution analysis; details: time 18-20 hrs
[34] = test system: Staphylococcus aureus; assay: Antibacterial activity against methicillin-resistant Staphylococcus aureus USA 300 (ARLG 1644) assessed as reduction in visible bacterial growth incubated for 18 to 20 hrs by CLSI based broth microdilution analysis; details: time 18-20 hrs
[35] = test system: Staphylococcus aureus; assay: Antibacterial activity against methicillin-resistant Staphylococcus aureus USA 300 (ARLG 1649) assessed as reduction in visible bacterial growth incubated for 18 to 20 hrs by CLSI based broth microdilution analysis; details: time 18-20 hrs
[36] = test system: Staphylococcus aureus; assay: Antibacterial activity against methicillin-resistant Staphylococcus aureus USA 300 (ARLG 1663) assessed as reduction in visible bacterial growth incubated for 18 to 20 hrs by CLSI based broth microdilution analysis; details: time 18-20 hrs
[37] = test system: Staphylococcus aureus; assay: Antibacterial activity against methicillin-resistant Staphylococcus aureus USA 300 (ARLG 1665) assessed as reduction in visible bacterial growth incubated for 18 to 20 hrs by CLSI based broth microdilution analysis; details: time 18-20 hrs

- MIC [1]: 4 µg/mL (≈ 11.1 µM)
Compound: Oc1ccc([C@@H]2Nc3c(ccc(Cl)c3Cl)[C@H]3[C@@H]4CC[C@@H](C4)[C@H]32)cc1

Compound: Oc1c(Cl)cc(Cl)cc1Sc1cc(Cl)cc(Cl)c1O [BITHIONOL]
- MBEC [2]: 8 µg/mL
- MBEC [3]: 8 µg/mL
- MBEC [4]: 8 µg/mL

- MIC [1]: 4 µg/mL (≈ 10.7 µM)
Compound: Oc1ccc([C@@H]2Nc3c(OC(F)(F)F)cccc3[C@H]3[C@@H]4CC[C@@H](C4)[C@H]32)cc1

- MIC [1]: > 16 µg/mL
Compound: Oc1ccc([C@@H]2Nc3ccc(F)cc3[C@H]3[C@@H]4CC[C@@H](C4)[C@H]32)cc1

Compound: FC(F)(F)c1n[nH]cc1[C@@H]1Nc2ccc(S(F)(F)(F)(F)F)cc2[C@H]2[C@@H]3CC[C@@H](C3)[C@H]21
- MBEC [5]: 2 µg/mL
- MBEC [2]: 32 µg/mL
- MBEC [3]: 32 µg/mL
- MBEC [6]: 2 µg/mL
- MBEC [7]: 2 µg/mL
- MBEC [8]: 8 µg/mL
- MBEC [9]: 1 µg/mL
- fractional inhibitory concentration index (FICI) [10]: 0.38
- fractional inhibitory concentration index (FICI) [11]: 0.28
- MBEC [4]: 32 µg/mL
- MBEC [12]: 2 µg/mL
- MBEC [13]: 2 µg/mL
- MBEC [14]: 1 µg/mL
- MBEC [15]: 1 µg/mL
- fractional inhibitory concentration index (FICI) [16]: 0.25
- fractional inhibitory concentration index (FICI) [17]: 0.28
- MBEC [18]: 4 µg/mL
- MBEC [19]: 1 µg/mL
- MBEC [20]: 1 µg/mL
- fractional inhibitory concentration index (FICI) [21]: 0.16
- fractional inhibitory concentration index (FICI) [22]: 0.28

Compound: Oc1ccc([C@@H]2Nc3ccc(SC(F)(F)F)cc3[C@H]3[C@@H]4CC[C@@H](C4)[C@H]32)cc1
- MIC [23]: 2 µg/mL (≈ 5.11 µM)
- MIC [24]: 2 µg/mL (≈ 5.11 µM)
- MIC [1]: 2 µg/mL (≈ 5.11 µM)
- MIC [25]: 2 µg/mL (≈ 5.11 µM)
- MIC [26]: 2 µg/mL (≈ 5.11 µM)
- MIC [27]: 2 µg/mL (≈ 5.11 µM)
- MIC [28]: 2 µg/mL (≈ 5.11 µM)

- MIC [1]: > 16 µg/mL
Compound: Oc1ccc([C@@H]2Nc3c(SC(F)(F)F)cccc3[C@H]3[C@@H]4CC[C@@H](C4)[C@H]32)cc1

- MIC [1]: 4 µg/mL (≈ 12.4 µM)
Compound: COc1ccc2c(c1)[C@H]1[C@@H]3CC[C@@H](C3)[C@H]1[C@H](c1ccc(O)cc1)N2

Compound: Oc1ccc([C@@H]2Nc3ccc(C(F)(F)F)cc3[C@H]3[C@@H]4CC[C@@H](C4)[C@H]32)cc1
- MIC [23]: 2 µg/mL (≈ 5.56 µM)
- MIC [24]: 2 µg/mL (≈ 5.56 µM)
- MIC [1]: 2 µg/mL (≈ 5.56 µM)
- MIC [25]: 2 µg/mL (≈ 5.56 µM)
- MIC [26]: 2 µg/mL (≈ 5.56 µM)
- MIC [27]: 2 µg/mL (≈ 5.56 µM)
- MIC [28]: 2 µg/mL (≈ 5.56 µM)

- MIC [1]: > 16 µg/mL
Compound: Oc1ccc(-c2nc3ccc(S(F)(F)(F)(F)F)cc3c3c2[C@H]2CC[C@@H]3C2)cc1

Compound: CN[C@H](CC(C)C)C(=O)N[C@H]1C(=O)N[C@@H](CC(N)=O)C(=O)N[C@H]2C(=O)N[C@H]3C(=O)N[C@H](C(=O)N[C@H](C(=O)O)c4cc(O)cc(O)c4-c4cc3ccc4O)[C@H](O)c3ccc(c(Cl)c3)Oc3cc2cc(c3O[C@@H]2O[C@H](CO)[C@@H](O)[C@H](O)[C@H]2O[C@H]2C[C@](C)(N)[C@H](O)[C@H](C)O2)Oc2ccc(cc2Cl)[C@H]1O [VANCOMYCIN]
- MBC [24]: 1 µg/mL (≈ 0.69 µM)
- MBC [1]: 2 µg/mL (≈ 1.38 µM)
- MBC [25]: 2 µg/mL (≈ 1.38 µM)
- MIC [25]: 1 µg/mL (≈ 0.69 µM)
- MBC [26]: 2 µg/mL (≈ 1.38 µM)
- MIC [26]: 2 µg/mL (≈ 1.38 µM)
- MBC [28]: 2 µg/mL (≈ 1.38 µM)
- MBC [29]: 1 µg/mL (≈ 0.69 µM)
- MBC [30]: 1 µg/mL (≈ 0.69 µM)
- MBC [31]: 1 µg/mL (≈ 0.69 µM)
- MBC [32]: 1 µg/mL (≈ 0.69 µM)
- MBC [33]: 2 µg/mL (≈ 1.38 µM)
- MBC [34]: 1 µg/mL (≈ 0.69 µM)
- MBC [35]: 1 µg/mL (≈ 0.69 µM)
- MBC [36]: 1 µg/mL (≈ 0.69 µM)
- MBC [37]: 8 µg/mL (≈ 5.52 µM)

Compound: O=[N+]([O-])c1ccc(O)c2ncccc12 [NITROXOLINE]
- MBEC [2]: 16 µg/mL
- MBEC [3]: 16 µg/mL
- MBEC [4]: 16 µg/mL
